Assay results published in patent publication US11116771B2, “G protein-coupled receptor (GPCR) modulation by imipridones” (Oncoceutics, Inc., priority 2016, dated 2021).
In brackets after ≈: the same amount, converted by molar mass. Entries after “also recorded” stand apart in the source; their conditions may differ. Read-outs that look alike come from different tables or passages of the source.

Key:
DRD1 = DRD1 (Homo sapiens, UniProt P21728); conditions: arrestin recruitment reporter assay
MV411 AML xenograft = MV411 AML xenograft model; type: in vivo, athymic nude mice
DRD5 = DRD5 (Homo sapiens, UniProt P21918); assay: β-arrestin recruitment GPCR reporter assay, DRD5; type: cell-based
Sequence of DRD5 (P21918 whole entry): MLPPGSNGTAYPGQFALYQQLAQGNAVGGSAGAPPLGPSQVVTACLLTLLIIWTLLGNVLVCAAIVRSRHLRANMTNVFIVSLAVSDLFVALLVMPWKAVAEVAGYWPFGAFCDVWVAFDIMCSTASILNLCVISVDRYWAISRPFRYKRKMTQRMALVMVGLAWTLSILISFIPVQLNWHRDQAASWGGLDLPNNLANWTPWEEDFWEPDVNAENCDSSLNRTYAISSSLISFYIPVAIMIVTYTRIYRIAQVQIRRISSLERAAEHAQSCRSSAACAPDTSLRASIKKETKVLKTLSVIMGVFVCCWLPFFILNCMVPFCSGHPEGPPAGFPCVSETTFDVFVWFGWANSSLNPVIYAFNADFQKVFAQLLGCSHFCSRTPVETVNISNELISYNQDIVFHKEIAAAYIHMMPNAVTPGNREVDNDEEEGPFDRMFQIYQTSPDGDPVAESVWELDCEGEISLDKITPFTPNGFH

in vitro = conditions: human, Cell viability of normal cells, about 1-5 mg/mL of ONC201, 72 hours
[1] = test system: nuclear hormone receptors; conditions: ONC201 2 or 20 μM (FIG. 5D)
DRD4 = DRD4 (Homo sapiens, UniProt P21917); conditions: arrestin recruitment reporter assay
Sequence of DRD4 (P21917 whole entry, canonical isoform): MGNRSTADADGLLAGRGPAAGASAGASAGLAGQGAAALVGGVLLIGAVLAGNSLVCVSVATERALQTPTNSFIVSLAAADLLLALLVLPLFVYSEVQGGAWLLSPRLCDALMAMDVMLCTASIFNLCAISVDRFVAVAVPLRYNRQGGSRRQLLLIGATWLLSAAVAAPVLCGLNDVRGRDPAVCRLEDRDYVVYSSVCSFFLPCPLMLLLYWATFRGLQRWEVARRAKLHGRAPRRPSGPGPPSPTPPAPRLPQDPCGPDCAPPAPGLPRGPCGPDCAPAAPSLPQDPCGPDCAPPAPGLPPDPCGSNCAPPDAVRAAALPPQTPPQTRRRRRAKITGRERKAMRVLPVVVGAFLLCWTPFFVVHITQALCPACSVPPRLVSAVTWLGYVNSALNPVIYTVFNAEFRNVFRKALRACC

[2] = test system: DRD2 (short and long isoforms); assay: β-arrestin recruitment GPCR reporter assay, DRD2; type: cell-based
prolactin = conditions: advanced solid tumors, ELISA in peripheral blood after ONC201
kinome = conditions: in vitro kinase enzymatic activity, ONC201 1 μM (FIG. 5E)
control GPCR = conditions: 100 μM ONC201
MV411 AML cells = assay: Cell viability, MV411 AML cells; type: cell-based
[3] = test system: Staphylococcus aureus ATCC 29213; assay: MIC by micro-broth dilution, S. aureus ATCC 29213; type: cell-based
[4] = target: DRD2 alanine-scan mutation library (Homo sapiens, UniProt P14416, V196A)
Sequence of DRD2 alanine-scan mutation library (Homo sapiens, UniProt P14416, V196A) (P14416 whole entry V196A): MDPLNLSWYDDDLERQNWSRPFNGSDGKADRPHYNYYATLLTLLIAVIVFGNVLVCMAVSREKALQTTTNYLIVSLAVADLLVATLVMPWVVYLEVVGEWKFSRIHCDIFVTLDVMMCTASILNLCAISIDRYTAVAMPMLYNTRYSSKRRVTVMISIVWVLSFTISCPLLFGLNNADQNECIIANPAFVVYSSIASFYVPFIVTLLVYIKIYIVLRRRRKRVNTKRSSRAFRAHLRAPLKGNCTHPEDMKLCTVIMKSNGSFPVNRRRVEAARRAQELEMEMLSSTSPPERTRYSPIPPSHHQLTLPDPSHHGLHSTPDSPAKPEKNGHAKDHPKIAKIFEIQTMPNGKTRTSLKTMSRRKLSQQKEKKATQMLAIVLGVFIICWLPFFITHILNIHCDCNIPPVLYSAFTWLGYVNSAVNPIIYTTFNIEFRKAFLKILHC

[5] = target: DRD2 alanine-scan mutation library (Homo sapiens, UniProt P14416, I397A)
Sequence of DRD2 alanine-scan mutation library (Homo sapiens, UniProt P14416, I397A) (P14416 whole entry I397A): as the sequence (P14416 whole entry V196A) above, with A196V, I397A counted along it

[6] = target: DRD2 alanine-scan mutation library (Homo sapiens, UniProt P14416, L81A)
Sequence of DRD2 alanine-scan mutation library (Homo sapiens, UniProt P14416, L81A) (P14416 whole entry L81A): as the sequence (P14416 whole entry V196A) above, with L81A, A196V counted along it

[7] = target: DRD2 alanine-scan mutation library (Homo sapiens, UniProt P14416, Y192A)
Sequence of DRD2 alanine-scan mutation library (Homo sapiens, UniProt P14416, Y192A) (P14416 whole entry Y192A): as the sequence (P14416 whole entry V196A) above, with Y192A, A196V counted along it

[8] = target: DRD2 alanine-scan mutation library (Homo sapiens, UniProt P14416, V91A)
Sequence of DRD2 alanine-scan mutation library (Homo sapiens, UniProt P14416, V91A) (P14416 whole entry V91A): as the sequence (P14416 whole entry V196A) above, with V91A, A196V counted along it

[9] = target: DRD2 alanine-scan mutation library (Homo sapiens, UniProt P14416, A177S)
Sequence of DRD2 alanine-scan mutation library (Homo sapiens, UniProt P14416, A177S) (P14416 whole entry A177S): as the sequence (P14416 whole entry V196A) above, with A177S, A196V counted along it

[10] = target: DRD2 alanine-scan mutation library (Homo sapiens, UniProt P14416, E95A)
Sequence of DRD2 alanine-scan mutation library (Homo sapiens, UniProt P14416, E95A) (P14416 whole entry E95A): as the sequence (P14416 whole entry V196A) above, with E95A, A196V counted along it

[11] = target: DRD2 alanine-scan mutation library (Homo sapiens, UniProt P14416, T165A)
Sequence of DRD2 alanine-scan mutation library (Homo sapiens, UniProt P14416, T165A) (P14416 whole entry T165A): as the sequence (P14416 whole entry V196A) above, with T165A, A196V counted along it

HCT116, MDA-MB-231, U87 [12] = assay: cells; conditions: Homo sapiens, 72 h, read-out: viability of tumor cells
DRD2L = DRD2L (Homo sapiens, UniProt P14416); assay: Gaddum/Schild analysis of arrestin recruitment to DRD2L; type: cell-based; conditions: arrestin recruitment / cAMP reporters (FIGS. 5B, 5C, 5F)
Sequence of DRD2L (P14416 whole entry): as the sequence (P14416 whole entry V196A) above, with A196V counted along it

human DRD2 [13] = target: T1, human DRD2 (Homo sapiens, UniProt P14416); assay: cell-based; conditions: HEK-293T, read-out: inhibition of the DRD2 dopamine response
T1 sequence (P14416 whole entry): as the sequence (P14416 whole entry V196A) above, with A196V counted along it

HCT116, MDA-MB-231, U87 [14] = conditions: about 1-5 mg/mL of ONC201, 72 hours
[15] = test system: Staphylococcus aureus ATCC 700699; assay: MIC by micro-broth dilution, S. aureus ATCC 700699; type: cell-based; conditions: Staphylococcus aureus
human DRD2 [16] = target: T1, human DRD2
[17] = Rat non-GLP oral single dose study; type: in vivo; conditions: in vivo
[18] = test system: Staphylococcus aureus ATCC 33591; assay: MIC by micro-broth dilution, S. aureus ATCC 33591; type: cell-based
[19] = test system: human colon cancer xenograft; assay: Human colon cancer xenograft in mice; type: in vivo; conditions: single dose, oral or intraperitoneal (FIG. 24)
HCT116 cells = assay: Anticancer efficacy in HCT116 cells; type: cell-based, human
leukemia cell lines = assay: Anti-cancer efficacy in leukemia cell lines; type: cell-based; conditions: 55 leukemia cell lines regardless of subtype (FIG. 26)
[20] = test system: MRC5 lung fibroblasts and Hs27a bone marrow cells; assay: Cell viability of normal cells treated with ONC212; type: cell-based; conditions: 5 nM-5 μM, 72 h (FIG. 29B)
[21] = Mouse tolerability (non-GLP oral single dose / MTD study); type: in vivo
Experimental: ONC212 25 mg/kg represents NOAEL in mouse and rat non-GLP oral single dose studies which is also the efficacious dose in mouse xenograft studies. […].
Dual targeting of DRD2/3 and GPR132/91 represents a novel strategy for anti-cancer efficacy without toxicity. […] […]. […] […].

MOLM14 AML cells = assay: Cell viability, MOLM14 AML cells; type: cell-based; conditions: ONC212 at 250 nM, viability determined at 96 h (FIG. 29C)
[22] = test system: human fetal lung fibroblast (MRC-5) cells; conditions: MRC5; nanomolar concentrations (FIG. 22)
GPR132 = target: T2, GPR132 (Homo sapiens, UniProt Q9UNW8); assay: β-arrestin recruitment GPCR reporter assay, GPR132; type: cell-based
T2 sequence (Q9UNW8 1-380): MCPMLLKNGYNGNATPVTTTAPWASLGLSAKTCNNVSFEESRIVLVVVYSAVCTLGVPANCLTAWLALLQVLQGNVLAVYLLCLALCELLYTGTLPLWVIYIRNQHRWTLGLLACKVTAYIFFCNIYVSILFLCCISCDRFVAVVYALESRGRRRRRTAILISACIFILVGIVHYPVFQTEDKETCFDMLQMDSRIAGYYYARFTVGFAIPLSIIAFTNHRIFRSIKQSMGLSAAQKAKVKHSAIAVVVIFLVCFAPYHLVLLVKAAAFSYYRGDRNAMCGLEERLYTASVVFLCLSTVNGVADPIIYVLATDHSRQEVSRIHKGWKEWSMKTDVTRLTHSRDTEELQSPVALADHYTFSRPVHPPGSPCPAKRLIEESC

HL60 = assay: Cell viability, HL60 AML cell line; type: cell-based; conditions: Homo sapiens, HL-60, 72 h
[23] = test system: NCI60 cancer cell line panel; assay: NCI60 cancer cell line panel; type: cell-based; conditions: NCI60 panel (FIG. 16)
[24] = oral weekly administration, ONC212 50 mg/kg, ONC201 at similar doses (FIG. 30A)

Sequence of DRD1 (P21728 whole entry): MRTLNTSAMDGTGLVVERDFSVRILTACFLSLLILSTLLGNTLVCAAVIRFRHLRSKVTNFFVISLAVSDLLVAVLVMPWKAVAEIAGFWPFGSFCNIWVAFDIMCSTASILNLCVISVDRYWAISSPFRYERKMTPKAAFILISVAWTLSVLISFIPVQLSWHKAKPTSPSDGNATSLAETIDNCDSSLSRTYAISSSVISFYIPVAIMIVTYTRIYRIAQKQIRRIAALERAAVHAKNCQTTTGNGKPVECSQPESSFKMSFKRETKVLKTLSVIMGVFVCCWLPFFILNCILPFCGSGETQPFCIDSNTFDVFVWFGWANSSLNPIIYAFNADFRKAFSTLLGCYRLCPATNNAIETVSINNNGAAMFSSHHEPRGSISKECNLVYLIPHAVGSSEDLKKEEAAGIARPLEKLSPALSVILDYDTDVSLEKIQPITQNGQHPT

Cc1ccccc1CN1C(=O)C2=C(CCN(Cc3ccccc3)C2)N2CCN=C12 [ONC201, 7-benzyl-4-(2-methylbenzyl)-1,2,6,7,8,9-hexahydroimidazo [1,2-a]pyrido [3,4-e]pyrimidin-5(1H)-one]
GPCR activity, DRD1 (DRD1): no antagonism | leukemia xenograft tumor growth (MV411 AML xenograft; [24]): not efficacious | GPCR activity, DRD5 (DRD5): no antagonism | viability at 72 h (in vitro): ≥ 75% | interaction with nuclear hormone receptors [1]: no significant interactions | GPCR activity, DRD4 (DRD4): weaker potency | GPCR activity, DRD2 [2]: selectively antagonizes; also recorded: antagonized | patients exhibiting induction of prolactin (prolactin): 10/11 | interaction with the kinome (kinome): no significant interactions | effect on calcium flux of control GPCR (control GPCR): no effect | exposure required for efficacy (MV411 AML cells): 24 to 48 h | MIC ([3]; Staphylococcus aureus, ATCC29213): > 100 µg/mL | MIC99 ([3]; Staphylococcus aureus, ATCC29213, 24 h): > 100 µg/mL | MIC ([3]; Staphylococcus aureus, ATCC29213, 24 h, read-out: MIC95): > 100 µg/mL | MIC ([3]; Staphylococcus aureus, ATCC29213, 24 h, read-out: MIC, Visual): > 100 µg/mL | Calcium Flux as a % of flux with WT DRD2 (100), ONC201 100 μM [4]: 79% | Calcium Flux as a % of flux with WT DRD2 (100), ONC201 250 μM [4]: 22% | Calcium Flux as a % of flux with WT DRD2 (100), ONC201 100 μM [5]: 122% | Calcium Flux as a % of flux with WT DRD2 (100), ONC201 250 μM [5]: 89% | Calcium Flux as a % of flux with WT DRD2 (100), ONC201 100 μM [6]: 63% | Calcium Flux as a % of flux with WT DRD2 (100), ONC201 250 μM [6]: 20% | Calcium Flux as a % of flux with WT DRD2 (100), ONC201 100 μM [7]: 85% | Calcium Flux as a % of flux with WT DRD2 (100), ONC201 250 μM [7]: 11% | Calcium Flux as a % of flux with WT DRD2 (100), ONC201 100 μM [8]: 94% | Calcium Flux as a % of flux with WT DRD2 (100), ONC201 250 μM [8]: 58% | Calcium Flux as a % of flux with WT DRD2 (100), ONC201 100 μM [9]: 77% | Calcium Flux as a % of flux with WT DRD2 (100), ONC201 250 μM [9]: 26% | Calcium Flux as a % of flux with WT DRD2 (100), ONC201 100 μM [10]: 97% | Calcium Flux as a % of flux with WT DRD2 (100), ONC201 250 μM [10]: 39% | Calcium Flux as a % of flux with WT DRD2 (100), ONC201 100 μM [11]: 67% | Calcium Flux as a % of flux with WT DRD2 (100), ONC201 250 μM [11]: 28% | viability at 5000 µg/mL (HCT116, MDA-MB-231, U87 [12]): < 25% | antagonism of DRD2L (DRD2L): direct, competitive antagonism | inhibition at 100 µM (human DRD2 [13]): > 95% | viability of tumor cells (HCT116, MDA-MB-231, U87 [14]): ≤ 50% | MIC ([15]; ATCC700699): > 100 µg/mL | MIC99 ([15]; ATCC700699, 48 h): > 100 µg/mL | MIC ([15]; ATCC700699, 48 h, read-out: MIC95): > 100 µg/mL | MIC ([15]; ATCC700699, 48 h, read-out: MIC, Visual): > 100 µg/mL | inhibition of DRD2 dopamine-induced calcium flux (human DRD2 [16]): completely inhibited; also recorded: complete inhibition | NOAEL ([17]; rat non-GLP oral single dose study, read-out: NOAEL): 225 mg/kg | MIC ([18]; Staphylococcus aureus, ATCC33591): > 100 µg/mL | MIC99 ([18]; Staphylococcus aureus, ATCC33591, 24 h): > 100 µg/mL | MIC ([18]; Staphylococcus aureus, ATCC33591, 24 h, read-out: MIC95): > 100 µg/mL | MIC ([18]; Staphylococcus aureus, ATCC33591, 24 h, read-out: MIC, Visual): > 100 µg/mL

O=C1C2=C(CCN(Cc3ccccc3)C2)N2CCN=C2N1Cc1ccc(C(F)(F)F)cc1 [ONC212]
tumor volume compared to vehicle-treated control [19]: significant reduction of tumor volume | body weight loss or gross observations (MV411 AML xenograft; all ONC212 regimens (FIG. 30C)): None of these ONC212 administration regimens were associated with body weight loss | leukemia xenograft tumor growth (MV411 AML xenograft; biweekly dosing with 25 mg/kg, oral (FIG. 30B)): not efficacious | leukemia xenograft tumor growth (MV411 AML xenograft; [24]): significantly reduced | leukemia xenograft tumor growth (MV411 AML xenograft; weekly/biweekly dosing with 5 mg/kg, oral (FIG. 30B)): not efficacious | cell death in cancer cells (HCT116 cells; HCT116, nanomolar concentrations (FIG. 22)): induced cell death | IC50 (HCT116 cells; Homo sapiens, HCT-116, HCT116 cells): 10 nM | anti-cancer efficacy (leukemia cell lines): nanomolar range | toxicity to normal cells [20]: non-toxic to normal cells at efficacious concentrations | NOAEL ([21]; in vivo, mouse, non-GLP oral single dose study / MTD study): 25 mg/kg | well tolerated dose ([21]; mice): ≥ 225 mg/kg | cell viability after 8 hr exposure (MOLM14 AML cells): robust reduction in cell viability | GPCR activity, DRD2 [2]: does not engage DRD2 | cell death in normal cells [22]: not normal cells | GPCR activity, GPR132 (GPR132): highly selective agonist | fold more potent compared to ONC201 (MV411 AML cells; AML cell lines in vitro (Table 11)): up to 400 fold | efficacy in AML cells resistant to standard of care cytarabine (MV411 AML cells; MV411, 5 nM-5 μM, 24 h (FIG. 29A)): efficacious | cell viability after 8 hr exposure (MV411 AML cells; MV411, ONC212 at 250 nM, viability determined at 96 h (FIG. 29C)): robust reduction in cell viability | MIC ([3]; ATCC29213, wild type Staphylococcus aureus (ATCC 29213), read-out: MIC): 3.13 µg/mL (≈ 7.11 µM) | MIC90 ([3]; Staphylococcus aureus, ATCC29213, ATCC 29213, 24 hours, read-out: MIC90): 3.13 µg/mL (≈ 7.11 µM) | MIC ([3]; Staphylococcus aureus, ATCC29213, ATCC 29213, 24 hours, read-out: MIC95): 3.13 µg/mL (≈ 7.11 µM) | MIC99 ([3]; Staphylococcus aureus, ATCC29213, ATCC 29213, 24 hours, read-out: MIC99): 3.13 µg/mL (≈ 7.11 µM) | MIC ([3]; Staphylococcus aureus, ATCC29213, ATCC 29213, 24 hours, read-out: MIC, Visual): 3.12 µg/mL (≈ 7.09 µM) | IC50 (HL60): 210 nM | MIC90 ([15]; ATCC700699, ATCC 700699 (48 hours), read-out: MIC90): 6.25 µg/mL (≈ 14.2 µM) | MIC ([15]; ATCC700699, ATCC 700699 (48 hours), read-out: MIC95): 12.5 µg/mL (≈ 28.4 µM) | MIC99 ([15]; ATCC700699, ATCC 700699 (48 hours), read-out: MIC99): 12.5 µg/mL (≈ 28.4 µM) | MIC ([15]; ATCC700699, ATCC 700699 (48 hours), read-out: MIC, Visual): 12.5 µg/mL (≈ 28.4 µM) | NOAEL ([17]; rat, po): 25 mg/kg | anti-cancer efficacy across tumor types [23]: demonstrated anti-cancer efficacy | MIC ([18]; ATCC33591, Staphylococcus aureus (ATCC 33591), methicillin resistant, read-out: MIC): 3.13 µg/mL (≈ 7.11 µM) | MIC90 ([18]; Staphylococcus aureus, ATCC33591, ATCC 33591, 24 hours, read-out: MIC90): 3.13 µg/mL (≈ 7.11 µM) | MIC ([18]; Staphylococcus aureus, ATCC33591, ATCC 33591, 24 hours, read-out: MIC95): 6.25 µg/mL (≈ 14.2 µM) | MIC99 ([18]; Staphylococcus aureus, ATCC33591, ATCC 33591, 24 hours, read-out: MIC99): 100 µg/mL (≈ 227 µM) | MIC ([18]; Staphylococcus aureus, ATCC33591, ATCC 33591, 24 hours, read-out: MIC, Visual): 3.12 µg/mL (≈ 7.09 µM)
